# Results from patent US5484934A, “Isothiazole derivatives, a process for production thereof and uses thereof” (Nihon Nohyaku Co., Ltd., priority 1992, dated 1996).
# Legend:
# Coriolus versicolor = assay: Inhibition of hypha growth on malt extract agar, Coriolus versicolor; assay type: cell-based; settings: Trametes versicolor, 28±2° C., 2 to 10 days, read-out: Controlling effect (growth inhibition rate) COV
# [1] = system: Cladosporium cladosporioides; assay: Inhibition of hypha growth on malt extract agar, Cladosporium cladosporioides; settings: read-out: Controlling effect (growth inhibition rate) CLC
# Protocol: (§1) Each preparation to be tested was added to malt extract agar medium to adjust the concentration to 50 ppm, and the resulting mixture was dispensed into Petri dishes. As an inoculum, a prepared mycerial tuft of each test fungus was punched out together with agar by means of a 4-mm-diameter cork borer and inoculated on medium. The incubation temperature was adjusted to 28±2° .C (or 18±2° C. in the case of Selupula lacrymas).
# (§2) The diameter of mycerial tuft was measured 2 to 10 days after the inoculation, and the inhibition rate of hypha growth (the following equation) was measured.
# Chaetomium globosum = assay: Inhibition of hypha growth on malt extract agar, Chaetomium globosum; settings: read-out: Controlling effect (growth inhibition rate) CHG
# Protocol: as §1, §2
# (§3) The controlling effect was evaluated according to the following criterion.
# Serpula lacrymans = assay: Inhibition of hypha growth on malt extract agar, Serpula lacrymans; settings: read-out: Controlling effect (growth inhibition rate) SEL
# Protocol: as §1, §2
# Aspergillus niger = assay: Inhibition of hypha growth on malt extract agar, Aspergillus niger; settings: read-out: Controlling effect (growth inhibition rate) ASN
# Protocol: as §1, §2, §3
# Trichoderma viride = assay: Inhibition of hypha growth on malt extract agar, Trichoderma viride; settings: read-out: Controlling effect (growth inhibition rate) TRV
# Protocol: as §1, §2
# Alternaria mali = assay: Inhibition of hypha growth on malt extract agar, Alternaria mali; settings: read-out: Controlling effect (growth inhibition rate) ALM
# Protocol: as §1, §2, §3
# Fusarium oxysporum = assay: Inhibition of hypha growth on malt extract agar, Fusarium oxysporum; settings: read-out: Controlling effect (growth inhibition rate) FUO
# Protocol: as §1, §2, §3
# Rhizopus nigricans = assay: Inhibition of hypha growth on malt extract agar, Rhizopus nigricans; settings: Rhizopus stolonifer, read-out: Controlling effect (growth inhibition rate) RHS
# Protocol: as §1, §2
# Tyromyces palustris = assay: Inhibition of hypha growth on malt extract agar, Tyromyces palustris; settings: read-out: Controlling effect (growth inhibition rate) TYP
# Protocol: as §1, §2
Compound,inhibition at 50 ppm (Coriolus versicolor) [%],inhibition at 50 ppm [1] [%],inhibition at 50 ppm (Chaetomium globosum) [%],inhibition at 50 ppm (Serpula lacrymans) [%],inhibition at 50 ppm (Aspergillus niger) [%],inhibition at 50 ppm (Trichoderma viride) [%],inhibition at 50 ppm (Alternaria mali) [%],inhibition at 50 ppm (Fusarium oxysporum) [%],inhibition at 50 ppm (Rhizopus nigricans) [%],inhibition at 50 ppm (Tyromyces palustris) [%]
Cc1ccc(S(=O)(=O)c2snc(O)c2C#N)cc1 [Compound 2],85 to 99,55 to 84,85 to 99,55 to 84,55 to 84,85 to 99,55 to 84,55 to 84,85 to 99,55 to 84
N#Cc1c(O)nsc1S(=O)(=O)c1ccc(F)cc1 [Compound 11],85 to 99,55 to 84,85 to 99,55 to 84,55 to 84,85 to 99,55 to 84,85 to 99,85 to 99,85 to 99
C=C(C)COc1nsc([S+](C)[O-])c1C#N (stereo not shown) [Compound 17],85 to 99,100,100,100,100,100,100,100,100,100
CCOC(=O)C[S+]([O-])c1snc(OC)c1C#N (stereo not shown) [Compound 18],100,100,100,100,100,100,85 to 99,85 to 99,100,100
"CCC(C)S(=O)(=O)c1snc(OC(F)F)c1C#N (stereo not shown) [Compound 28, 3-difluoromethoxy-4-cyano-5-s-butylsulfonylisothiazole]",100,85 to 99,85 to 99,100,85 to 99,100,100,100,100,100
CC(C)(C)S(=O)(=O)c1snc(OC(F)F)c1C#N [Compound 29],100,85 to 99,100,85 to 99,85 to 99,100,85 to 99,85 to 99,100,100
"N#Cc1c(OC(F)F)nsc1S(=O)(=O)C1CCCC1 [Compound 30, 3-difluoromethoxy-4-cyano-5-cyclopentylsulfonylisothiazole]",100,85 to 99,100,85 to 99,85 to 99,100,85 to 99,85 to 99,100,100
CCCOc1nsc(S(C)(=O)=O)c1C#N [Compound 43],100,100,85 to 99,100,85 to 99,85 to 99,85 to 99,85 to 99,100,100
CC=CCOc1nsc(S(C)(=O)=O)c1C#N [Compound 57],100,100,85 to 99,100,85 to 99,85 to 99,85 to 99,100,85 to 99,100
CCS(=O)(=O)c1snc(OCC=CCl)c1C#N [Compound 59],100,100,100,100,100,100,100,100,100,100
CCOCCOc1nsc(S(C)(=O)=O)c1C#N [Compound 73],100,85 to 99,100,100,85 to 99,85 to 99,85 to 99,100,100,100
"CC(C)S(=O)(=O)c1snc(OC[Si](C)(C)C)c1C#N [Compound 77, 3-trimethylsilylmethoxy-4-cyano-5-isopropylsulfonylisothiazole]",100,85 to 99,100,100,85 to 99,100,85 to 99,85 to 99,100,85 to 99
COC(=O)CS(=O)(=O)c1snc(OC)c1C#N [Compound 81],100,100,100,100,100,100,100,100,100,100
COc1ccc(S(=O)(=O)c2snc(OC)c2C#N)cc1 [Compound 94],100,100,100,100,100,100,100,100,100,100
COc1nsc(S(=O)(=O)c2ccc(F)cc2)c1C#N [Compound 96],100,100,100,100,100,100,100,100,100,100
COc1nsc(S(=O)(=O)c2c(C)cc(C)cc2C)c1C#N [Compound 97],100,85 to 99,100,100,85 to 99,100,100,100,100,100
CCOc1nsc(S(=O)(=O)c2ccc(Cl)cc2)c1C#N [Compound 100],100,100,100,100,100,100,100,100,100,100
COC(=O)COc1nsc(S(=O)(=O)c2ccccc2)c1C#N [Compound 109],100,100,100,100,100,100,100,100,100,100
N#Cc1c(OC(F)F)nsc1S(=O)(=O)c1ccc(Cl)cc1 [Compound 111],85 to 99,100,100,85 to 99,100,100,100,85 to 99,100,100
Cc1ccc(Cl)cc1S(=O)(=O)c1snc(OC(F)F)c1C#N [Compound 113],100,100,100,100,100,100,100,100,100,100
CC(C)(C)c1ccc(S(=O)(=O)c2snc(OC(F)F)c2C#N)cc1 [Compound 117],100,85 to 99,100,100,100,100,85 to 99,85 to 99,100,85 to 99
C=CCOc1nsc(S(=O)(=O)c2ccc(C)cc2)c1C#N [Compound 119],100,100,100,100,85 to 99,100,85 to 99,85 to 99,100,85 to 99
